We go through 19 molecules from patent publication US20210047304A1, “Bromodomain Inhibitors” (AbbVie Inc., priority 2016, published 2021).

As usually defined, the Ki is a measure of affinity in units of concentration, obtained from inhibition or displacement. Read a low Ki as higher affinity.

This assay deals with BRD4 (BDI_K57-E168) (Homo sapiens, UniProt O60885). Kind of assay: TR-FRET bromodomain binding assay, BRD4 BDI. The method, then:
A time-resolved fluorescence resonance energy transfer (TR-FRET) assay was used to determine the affinities of compounds of the Examples listed in Table 1 for each bromodomain of BRD4. […] An Alexa647-labeled BET-inhibitor was used as the fluorescent probe in the assay.
Compound dilution series were prepared in DMSO via an approximately 3-fold serial dilution. Compound dilutions were added directly into white, low-volume assay plates (Perkin Elmer Proxiplate 384 Plus #6008280) using a Labcyte Echo in conjunction with Labcyte Access and Thermo Multidrop CombinL robotics. Compounds were then suspended in eight microliters (μL) of assay buffer (20 mM Sodium Phosphate, pH 6.0, 50 mM NaCl, 1 mM Ethylenediaminetetraacetic acid disodium salt dihydrate, 0.01% Triton X-100, 1 mM DL-Dithiothreitol) containing His-tagged bromodomain, Europium-conjugated anti-His antibody (Invitrogen PV5596) and Alexa-647-conjugated probe.
After a one-hour equilibration at room temperature, TR-FRET ratios were determined using an Envision multilabel plate reader (Ex 340, Em 495/520).
TR-FRET data were normalized to the means of 24 no-compound controls (“high”) and 8 controls containing 1 μM un-labeled probe (“low”). Percent inhibition was plotted as a function of compound concentration and the data were fit with the 4 parameter logistic equation to obtain IC50s. Inhibition constants (Ki) were calculated from the IC50s, probe Kd and probe concentration.
Compound dilution series for Compounds A-E were prepared in DMSO via an approximately 3-fold serial dilution from 0.47 mM to 7.8 nM.
Compound dilutions were added directly into white, low-volume assay plates (Perkin Elmer Proxiplate 384 Plus #6008280) using a Labcyte Echo in conjunction with Labcyte Access and Thermo Multidrop CombinL robotics. Compounds were then suspended in eight microliters (μL) of assay buffer (20 mM Sodium Phosphate, pH 6.0, 50 mM NaCl, 1 mM Ethylenediaminetetraacetic acid disodium salt dihydrate, 0.01% Triton X-100, 1 mM DL-Dithiothreitol) containing His-tagged bromodomain, Europium-conjugated anti-His antibody (Invitrogen PV5596) and Alexa-647-conjugated probe.
TR-FRET data were normalized to the means of 24 no-compound controls (“high”) and 8 controls containing 1 μM un-labeled probe (“low”). Percent inhibition was plotted as a function of compound concentration and the data were fit with the 4 parameter logistic equation to obtain IC50s. Inhibition constants (Ki) were calculated from the IC50s, probe Kd and probe concentration. Typical Z′ values were between 0.65 and 0.75. The minimum significant ratio was determined to evaluate assay reproducibility (Eastwood et al., (2006) J Biomol Screen, 11: 253-261). The MSR was determined to be 2.03 for BDI and 1.93 for BDII, and a moving MSR (last six run MSR overtime) for both BDI and BDII was typically <3.
For orientation: Time-resolved FRET reads energy transfer from a long-lived donor to a nearby acceptor.

`Cc1cc(F)cc(C)c1Oc1ccc(C(C)(C)O)cc1-c1cn(C)c(=O)cc1O[C@H]1CC[C@H](N2C(=O)N[C@H](C)C2=O)CC1` [Example 132, (5R)-3-[trans-4-({5-[2-(4-fluoro-2,6-dimethylphenoxy)-5-(2-hydroxypropan-2-yl)phenyl]-1-methyl-2-oxo-1,2-dihydropyridin-4-yl}oxy)cyclohexyl]-5-methylimidazolidine-2,4-dione] yielded a Ki of 4210 nM.

`Cc1cccc(C)c1Oc1ccc(C(C)(C)O)cc1-c1cn(C)c(=O)cc1NC1CCN(S(C)(=O)=O)CC1` [Example 2, 5-[2-(2,6-dimethylphenoxy)-5-(2-hydroxypropan-2-yl)phenyl]-4-{[1-(methanesulfonyl)piperidin-4-yl]amino}-1-methylpyridin-2(1H)-one] showed a Ki of 5890 nM. This Ki and that of the molecule before are within 1.5-fold of each other.

Regarding `Cc1cc(F)cc(C)c1Oc1ccc(C(C)(C)O)cc1-c1cn(C)c(=O)cc1O[C@H]1CC[C@H](NC(=O)C23CCC(CO)(CC2)CC3)CC1` (relative stereo) [Example 110, N-[trans-4-({5-[2-(4-fluoro-2,6-dimethylphenoxy)-5-(2-hydroxypropan-2-yl)phenyl]-1-methyl-2-oxo-1,2-dihydropyridin-4-yl}oxy)cyclohexyl]-4-(hydroxymethyl)bicyclo[2.2.2]octane-1-carboxamide], the Ki was determined as 3650 nM.

For the molecule `COCCCN(C(=O)C1(C)CC1)[C@H]1CC[C@H](Oc2cc(=O)n(C)cc2-c2cc(C(C)(C)O)ccc2Oc2c(C)cc(F)cc2C)CC1` [Example 65, N-[trans-4-({5-[2-(4-fluoro-2,6-dimethylphenoxy)-5-(2-hydroxypropan-2-yl)phenyl]-1-methyl-2-oxo-1,2-dihydropyridin-4-yl}oxy)cyclohexyl]-N-(3-methoxypropyl)-1-methylcyclopropane-1-carboxamide], the affinity corresponds to a Ki of 1860 nM.

In turn, `Cc1ccc(=O)n([C@H]2CC[C@H](Oc3cc(=O)n(C)cc3-c3cc(C(C)(C)O)ccc3Oc3c(C)cc(F)cc3C)CC2)n1` [Example 130, 2-[trans-4-({5-[2-(4-fluoro-2,6-dimethylphenoxy)-5-(2-hydroxypropan-2-yl)phenyl]-1-methyl-2-oxo-1,2-dihydropyridin-4-yl}oxy)cyclohexyl]-6-methylpyridazin-3(2H)-one] returned a Ki of 3190 nM. Compared with the last molecule, the Ki is about 1.7-fold higher.

On to `Cc1cc(F)cc(C)c1Oc1ccc(C(C)(C)O)cc1-c1cn(C)c(=O)cc1O[C@H]1CC[C@H](NC(=O)C23CC(NC(=O)OC(C)(C)C)(C2)C3)CC1` (relative stereo) [Example 72, tert-butyl (3-{[trans-4-({5-[2-(4-fluoro-2,6-dimethylphenoxy)-5-(2-hydroxypropan-2-yl)phenyl]-1-methyl-2-oxo-1,2-dihydropyridin-4-yl}oxy)cyclohexyl]carbamoyl}bicyclo[1.1.1]pentan-1-yl)carbamate], for which the Ki was more than 13000 nM.

As to `Cc1cc(F)cc(C)c1Oc1ccc(C(C)(C)O)cc1-c1cn(C)c(=O)cc1O[C@H]1CC[C@H](N2CC(C)(C)C2=O)CC1` [Example 30, 4-{[trans-4-(3,3-dimethyl-2-oxoazetidin-1-yl)cyclohexyl]oxy}-5-[2-(4-fluoro-2,6-dimethylphenoxy)-5-(2-hydroxypropan-2-yl)phenyl]-1-methylpyridin-2(1H)-one], the affinity, expressed as Ki, was 3300 nM.

Molecule `Cc1cc(F)cc(C)c1Oc1ccc(C(C)(C)O)cc1-c1cn(C)c(=O)cc1O[C@H]1CC[C@H](N2CCOCC2=O)CC1` [Example 40, 4-[trans-4-({5-[2-(4-fluoro-2,6-dimethylphenoxy)-5-(2-hydroxypropan-2-yl)phenyl]-1-methyl-2-oxo-1,2-dihydropyridin-4-yl}oxy)cyclohexyl]morpholin-3-one] came in with a Ki of 2030 nM.

Regarding `Cc1cc(F)cc(C)c1Oc1ccc(C(C)(C)O)cc1-c1cn(C)c(=O)cc1NC1CCC(C)(O)CC1` (stereo not drawn) [Example 23, 5-[2-(4-fluoro-2,6-dimethylphenoxy)-5-(2-hydroxypropan-2-yl)phenyl]-4-[(trans-4-hydroxy-4-methylcyclohexyl)amino]-1-methylpyridin-2(1H)-one], the affinity, expressed as Ki, was 3630 nM.

`COC(=O)N[C@H]1CC[C@H](Oc2cc(=O)n(C)cc2-c2cc(C(C)(C)O)cnc2Oc2c(C)cc(C(C)(C)O)cc2C)CC1` [Example 25, methyl [trans-4-({5′-(2-hydroxypropan-2-yl)-2′-[4-(2-hydroxypropan-2-yl)-2,6-dimethylphenoxy]-1-methyl-6-oxo[1,6-dihydro[3,3′-bipyridine]]-4-yl}oxy)cyclohexyl]carbamate] displayed an inhibition constant (Ki) of 2220 nM. This Ki is about 1.6-fold lower than that of the molecule before.

For `Cc1cc(F)cc(C)c1Oc1ccc(C(C)(C)O)cc1-c1cn(C)c(=O)cc1O[C@H]1CC[C@H](N2CCCOC2=O)CC1` [Example 39, 3-[trans-4-({5-[2-(4-fluoro-2,6-dimethylphenoxy)-5-(2-hydroxypropan-2-yl)phenyl]-1-methyl-2-oxo-1,2-dihydropyridin-4-yl}oxy)cyclohexyl]-1,3-oxazinan-2-one], the affinity, expressed as Ki, was 2250 nM.

Molecule `Cc1cc(F)cc(C)c1Oc1ccc(C(C)(C)O)cc1-c1cn(C)c(=O)cc1O[C@H]1CC[C@@H](C#N)CC1` [Example 68, cis-4-({5-[2-(4-fluoro-2,6-dimethylphenoxy)-5-(2-hydroxypropan-2-yl)phenyl]-1-methyl-2-oxo-1,2-dihydropyridin-4-yl}oxy)cyclohexane-1-carbonitrile] gave a Ki of 1950 nM.

`CC(=O)N1CCC(=O)N1[C@H]1CC[C@H](Oc2cc(=O)n(C)cc2-c2cc(C(C)(C)O)ccc2Oc2c(C)cc(F)cc2C)CC1` [Example 112, 4-{[trans-4-(2-acetyl-5-oxopyrazolidin-1-yl)cyclohexyl]oxy}-5-[2-(4-fluoro-2,6-dimethylphenoxy)-5-(2-hydroxypropan-2-yl)phenyl]-1-methylpyridin-2(1H)-one] had a Ki of 4860 nM. This Ki is about 2.5-fold higher than that of the molecule before.

As to `Cc1cc(F)cc(C)c1Oc1ccc(C(C)(C)O)cc1-c1cn(C)c(=O)cc1O[C@H]1CC[C@H](N2C(=O)NC3(CC3)C2=O)CC1` [Example 136, 6-[trans-4-({5-[2-(4-fluoro-2,6-dimethylphenoxy)-5-(2-hydroxypropan-2-yl)phenyl]-1-methyl-2-oxo-1,2-dihydropyridin-4-yl}oxy)cyclohexyl]-4,6-diazaspiro[2.4]heptane-5,7-dione], the affinity corresponds to a Ki of 2470 nM.

As for `COC(=O)N[C@H]1CC[C@H](Oc2cc(=O)n(C)cc2-c2cc(C(C)(C)O)ccc2Oc2c(C)cc(C(C)(C)O)cc2C)CC1` [Example 20, methyl {trans-4-[(5-{5-(2-hydroxypropan-2-yl)-2-[4-(2-hydroxypropan-2-yl)-2,6-dimethylphenoxy]phenyl}-1-methyl-2-oxo-1,2-dihydropyridin-4-yl)oxy]cyclohexyl}carbamate], affinity was put at a Ki of 1090 nM. This Ki is about 2.3-fold lower than that of the molecule before.

Take `Cc1cc(F)cc(C)c1Oc1ccc(C(C)(C)O)cc1-c1cn(C)c(=O)cc1O[C@H]1C[C@@H](C(C)(C)O)C1` [Example 94, 5-[2-(4-fluoro-2,6-dimethylphenoxy)-5-(2-hydroxypropan-2-yl)phenyl]-4-{[cis-3-(2-hydroxypropan-2-yl)cyclobutyl]oxy}-1-methylpyridin-2(1H)-one]: the Ki was 1670 nM.

On to `Cc1cc(F)cc(C)c1Oc1ccc(C(C)(C)O)cc1-c1cn(C)c(=O)cc1O[C@H]1CC[C@H](N2C(=O)N(C)C(C)(C)C2=O)CC1` [Example 142, 3-[trans-4-({5-[2-(4-fluoro-2,6-dimethylphenoxy)-5-(2-hydroxypropan-2-yl)phenyl]-1-methyl-2-oxo-1,2-dihydropyridin-4-yl}oxy)cyclohexyl]-1,5,5-trimethylimidazolidine-2,4-dione], for which the affinity, expressed as Ki, was 940 nM. Against the preceding molecule, the Ki is about 1.8-fold lower.

For `COC(=O)N[C@H]1CC[C@H](Oc2cc(=O)n(C)cc2-c2cc(C(C)(C)O)ccc2Oc2c(C)cc(F)cc2C)CC1` [Example 4, methyl [trans-4-({5-[2-(4-fluoro-2,6-dimethylphenoxy)-5-(2-hydroxypropan-2-yl)phenyl]-1-methyl-2-oxo-1,2-dihydropyridin-4-yl}oxy)cyclohexyl]carbamate], the inhibitory constant (Ki) was 1450 nM.

Molecule `Cc1cc(F)cc(C)c1Oc1ccc(C(C)(C)O)cc1-c1cn(C)c(=O)cc1O[C@H]1CC[C@@H](C(=O)O)CC1` [Example 75, cis-4-({5-[2-(4-fluoro-2,6-dimethylphenoxy)-5-(2-hydroxypropan-2-yl)phenyl]-1-methyl-2-oxo-1,2-dihydropyridin-4-yl}oxy)cyclohexane-1-carboxylic acid] had a Ki of more than 13000 nM.
